# Measurements published in ChEMBL document CHEMBL1145976, “Non-peptide angiotensin II receptor antagonists: chemical feature based pharmacophore identification” (J Med Chem, 2003).
# Target: T1, Angiotensin II receptor (AT-1) type-1 (Rattus norvegicus, UniProt P29089+P25095)
# T1 sequence (P29089 whole entry): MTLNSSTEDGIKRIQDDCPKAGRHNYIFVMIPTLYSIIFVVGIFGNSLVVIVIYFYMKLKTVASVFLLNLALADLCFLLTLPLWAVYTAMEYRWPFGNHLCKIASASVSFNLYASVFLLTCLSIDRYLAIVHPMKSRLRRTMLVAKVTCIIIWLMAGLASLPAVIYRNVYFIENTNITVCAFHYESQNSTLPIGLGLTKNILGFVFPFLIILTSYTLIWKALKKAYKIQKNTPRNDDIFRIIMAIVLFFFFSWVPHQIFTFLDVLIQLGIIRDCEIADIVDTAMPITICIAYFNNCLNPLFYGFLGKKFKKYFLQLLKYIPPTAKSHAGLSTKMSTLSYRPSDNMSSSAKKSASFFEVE
# T1 sequence (P25095 whole entry): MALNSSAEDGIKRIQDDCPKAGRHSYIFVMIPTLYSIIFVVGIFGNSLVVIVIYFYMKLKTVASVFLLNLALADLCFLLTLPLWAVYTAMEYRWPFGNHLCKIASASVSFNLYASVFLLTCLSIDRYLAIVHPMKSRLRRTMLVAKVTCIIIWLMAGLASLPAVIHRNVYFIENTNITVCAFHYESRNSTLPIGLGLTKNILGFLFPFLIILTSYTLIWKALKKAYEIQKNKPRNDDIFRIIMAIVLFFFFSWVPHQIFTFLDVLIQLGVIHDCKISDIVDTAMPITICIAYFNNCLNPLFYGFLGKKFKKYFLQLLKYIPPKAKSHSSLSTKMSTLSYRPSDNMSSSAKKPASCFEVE
# Test: Inhibitory concentration that gives 50% displacement of specific binding at labeled angiotensin II type 1 receptor in rat adrenal cortical membranes.
# Assay type: cell membranes, Membrane
row,IC50,SMILES
1,500 nM,CCCCc1nc(Cl)c(CC(=O)OC)n1Cc1ccc(NC(=O)c2ccccc2NS(=O)(=O)C(F)(F)F)cc1
2,13000 nM,CCCCc1nc(Cl)c(CC(=O)O)n1Cc1ccc(CC(=O)O)cc1
3,2800 nM,CCCCc1nc(Cl)c(COC)n1Cc1ccc(NC(=O)Cc2ccccc2CC(=O)O)cc1
